Values after ≈ are worked out from the molar mass of the structure shown. Active and inactive are the calls of the source. The calls are words filed in the database; no cut-off is given here.
Key:
[1] = target: T1, Peptide deformylase (Staphylococcus aureus, UniProt P68826); assay: Inhibition of Staphylococcus aureus PDF-Ni assessed as enzyme activity incubated for 30 min by fluorescamine method
T1 sequence (P68826 whole entry): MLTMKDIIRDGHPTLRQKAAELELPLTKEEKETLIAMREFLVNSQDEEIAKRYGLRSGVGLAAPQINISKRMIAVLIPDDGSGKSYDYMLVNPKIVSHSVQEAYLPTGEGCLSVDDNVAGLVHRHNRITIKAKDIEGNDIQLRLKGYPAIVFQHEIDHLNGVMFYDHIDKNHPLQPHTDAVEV

[2] = test system: Acinetobacter baumannii; assay: Antibacterial activity against Acinetobacter baumannii Bio 69680 after 16 to 18 hrs by broth microdilution method; assay type: functional; conditions: time 16-18 hrs
[3] = test system: Staphylococcus aureus; assay: Antibacterial activity against methicillin-resistant Staphylococcus aureus Bio-090770 after 16 to 18 hrs by broth microdilution method; assay type: functional; conditions: time 16-18 hrs
[4] = test system: Staphylococcus aureus; assay: Induction of morphological changes in methicillin-resistant Staphylococcus aureus RB 3641 assessed as disintegration of cells at 8 times of MIC incubated for 4 hrs by Field emission scanning electron microscopic analysis; assay type: functional, organism-based
[5] = test system: Staphylococcus aureus; assay: Antibacterial activity against methicillin-susceptible Staphylococcus aureus ATCC 25923 after 16 to 18 hrs by broth microdilution method; assay type: functional; conditions: time 16-18 hrs
[6] = test system: Acinetobacter baumannii; assay: Induction of morphological changes in Acinetobacter baumannii Bio 53272 assessed as increased wrinkles at 8 times of MIC incubated for 4 hrs by Field emission scanning electron microscopic analysis; assay type: functional, organism-based
[7] = test system: Acinetobacter baumannii; assay: Bactericidal activity against drug-resistant Acinetobacter baumannii assessed as bacteriostatic efficiency at 0.5 to 2 microg/mL by time killing analysis; assay type: functional, organism-based; conditions: dose 0.5-2 µg/ml, time 0-25 hrs
[8] = test system: Staphylococcus aureus; assay: Antibacterial activity against methicillin-susceptible Staphylococcus aureus ATCC 13709 after 16 to 18 hrs by broth microdilution method; assay type: functional; conditions: time 16-18 hrs
[9] = test system: Acinetobacter baumannii; assay: Induction of intracellular ROS production in Acinetobacter baumannii Bio 53272 cells assessed as membrane potential imbalance incubated for 12 hrs by DCFH-DA probe based ROS assay; assay type: functional, organism-based
[10] = test system: Acinetobacter baumannii; assay: Bactericidal activity against drug-resistant Acinetobacter baumannii assessed as bacteriostatic efficiency at 2 microg/mL measured within 24 hrs by time killing analysis relative to control; assay type: functional, organism-based; conditions: dose 2.0 µg/ml
[11] = test system: Acinetobacter baumannii; assay: In vivo anti-bacterial activity against drug-resistant Acinetobacter baumannii infected MK mouse assessed as pathological changes of organs at 40 mg/kg; assay type: functional, organism-based
[12] = test system: Acinetobacter baumannii; assay: Bactericidal activity against drug-resistant Acinetobacter baumannii assessed as bacteriostatic efficiency measured after 0 to 24 hrs by time killing analysis; assay type: functional, organism-based; conditions: dose 0.5-2 µg/ml, time 0-24 hrs
[13] = test system: Klebsiella pneumoniae; assay: Antibacterial activity against Klebsiella pneumoniae CICC 20093 after 16 to 18 hrs by broth microdilution method; assay type: functional; conditions: time 16-18 hrs
[14] = test system: Klebsiella pneumoniae; assay: Antibacterial activity against Klebsiella pneumoniae CICC 21611 after 16 to 18 hrs by broth microdilution method; assay type: functional; conditions: time 16-18 hrs
[15] = test system: Acinetobacter baumannii; assay: Anti-biofilm activity against Acinetobacter baumannii assessed as growth inhibition at 32 microg/ml incubated for 24 hrs by microplate reader analysis relative to control; assay type: functional
[16] = Cytotoxicity against human HeLa cells assessed as cell viability at 3.125 to 100 uM incubated for 24 hrs by MTT assay; assay type: toxicity, cell-based
[17] = Acute toxicity in normal mouse assessed as aberrant behaviors at 400 mg/kg, iv observed for 14 days; assay type: organism-based; conditions: in vivo, 336 h, time 14 day
[18] = Aqueous solubility of compound at 0.9% aqueous NaCl solution incubated for 2 hrs by UV spectrophotometry analysis; assay type: physicochemical
[19] = test system: Acinetobacter baumannii; assay: Antibacterial activity against drug-resistant Acinetobacter baumannii Bio 53272 after 16 to 18 hrs by broth microdilution method; assay type: functional; conditions: time 16-18 hrs
[20] = Acute toxicity in normal mouse assessed as death at 400 mg/kg, iv observed for 14 days; assay type: organism-based; conditions: in vivo, 336 h, time 14 day
[21] = test system: Staphylococcus aureus; assay: Antibacterial activity against methicillin-resistant Staphylococcus aureus ATCC 33591 after 16 to 18 hrs by broth microdilution method; assay type: functional; conditions: time 16-18 hrs
[22] = Acute toxicity in KM mouse infected with drug-resistant Acinetobacter baumannii assessed as pathological changes in kidney at 40 mg/kg by HE staining based analysis; assay type: organism-based; conditions: in vivo
[23] = Acute toxicity in KM mouse infected with drug-resistant Acinetobacter baumannii assessed as pathological changes in liver at 40 mg/kg by HE staining based analysis; assay type: organism-based; conditions: in vivo
[24] = test system: Acinetobacter baumannii; assay: In vivo anti-bacterial activity against drug-resistant Acinetobacter baumannii infected MK mouse; assay type: functional
[25] = Methemoglobin toxicity in human blood at 500 uM incubated for 6 hrs by MetHb content assay; assay type: tissue-based
[26] = test system: Staphylococcus epidermidis; assay: Antibacterial activity against Staphylococcus epidermidis after 16 to 18 hrs by broth microdilution method; assay type: functional; conditions: time 16-18 hrs
[27] = test system: Staphylococcus aureus; assay: Anti-biofilm activity against methicillin-resistant Staphylococcus aureus assessed as growth inhibition at 4 microg/ml incubated for 24 hrs by microplate reader analysis relative to control; assay type: functional
[28] = target: T2, Peptide deformylase (Escherichia coli, UniProt Q9JN24); assay: Inhibition of Escherichia coli PDF-Ni assessed as enzyme activity incubated for 30 min by fluorescamine method
T2 sequence (Q9JN24 whole entry): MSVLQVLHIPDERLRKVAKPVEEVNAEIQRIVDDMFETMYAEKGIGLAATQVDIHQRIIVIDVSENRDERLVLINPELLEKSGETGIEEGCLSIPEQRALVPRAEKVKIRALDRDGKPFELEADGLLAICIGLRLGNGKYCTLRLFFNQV

[29] = Acute toxicity in normal mouse assessed as aberrant behaviors at 200 mg/kg, iv observed for 14 days; assay type: organism-based; conditions: in vivo, 336 h, time 14 day
[30] = test system: Acinetobacter baumannii; assay: Antibacterial activity against Acinetobacter baumannii Bio 53250 after 16 to 18 hrs by broth microdilution method; assay type: functional; conditions: time 16-18 hrs
[31] = test system: Escherichia coli; assay: Antibacterial activity against Escherichia coli ATCC 25922 after 16 to 18 hrs by broth microdilution method; assay type: functional; conditions: time 16-18 hrs
[32] = test system: Acinetobacter baumannii; assay: Antibacterial activity against Acinetobacter baumannii Bio 34235 after 16 to 18 hrs by broth microdilution method; assay type: functional; conditions: time 16-18 hrs
[33] = Cytotoxicity against human HEK293T cells assessed as cell viability at 3.125 to 100 uM incubated for 24 hrs by MTT assay; assay type: toxicity, cell-based, HEK-293T
[34] = test system: Acinetobacter baumannii; assay: Anti-biofilm activity against Acinetobacter baumannii at 0.5 to 64 microg/ml incubated for 24 hrs by microplate reader analysis; assay type: functional; conditions: dose 0.5-64 µg/ml, at 0.5 to 64 µg/mL
[35] = test system: Staphylococcus aureus; assay: Antibacterial activity against methicillin-resistant Staphylococcus aureus ATCC 43300 after 16 to 18 hrs by broth microdilution method; assay type: functional; conditions: time 16-18 hrs
[36] = test system: Escherichia coli; assay: Antibacterial activity against Escherichia coli ATCC 10668 after 16 to 18 hrs by broth microdilution method; assay type: functional; conditions: time 16-18 hrs
[37] = test system: Escherichia coli; assay: Antibacterial activity against Escherichia coli ATCC 10661 after 16 to 18 hrs by broth microdilution method; assay type: functional; conditions: time 16-18 hrs
[38] = test system: Staphylococcus aureus; assay: Anti-biofilm activity against methicillin-resistant Staphylococcus aureus assessed as growth inhibition at 0.031 microg/ml incubated for 24 hrs by microplate reader analysis relative to control; assay type: functional
[39] = test system: Acinetobacter baumannii; assay: Antibacterial activity against Acinetobacter baumannii Bio 24253 after 16 to 18 hrs by broth microdilution method; assay type: functional; conditions: time 16-18 hrs
[40] = test system: Klebsiella pneumoniae; assay: Antibacterial activity against Klebsiella pneumoniae CICC 21092 after 16 to 18 hrs by broth microdilution method; assay type: functional; conditions: time 16-18 hrs
[41] = test system: Acinetobacter baumannii; assay: Antibacterial activity against Acinetobacter baumannii Bio 120982 after 16 to 18 hrs by broth microdilution method; assay type: functional; conditions: time 16-18 hrs

## CCCC[C@H](CN(O)C=O)C(=O)N1CCC[C@H]1c1nnc(-c2cccs2)s1
[1]
  IC50: 2.5 nM
[2]
  MIC: 4 µg/mL (≈ 9.79 µM)
[3]
  MIC: 0.25 µg/mL (≈ 0.612 µM)
[4]
  Activity: Active
[5]
  MIC: 0.25 µg/mL (≈ 0.612 µM)
[6]
  Activity: Active
[7]
  Activity: Dose-dependent-effect
[8]
  MIC: 0.25 µg/mL (≈ 0.612 µM)
[9]
  Activity: Active
[10]
  Activity: Active
[11]
  Activity: inactive
[12]
  Activity: Dose-dependent-effect
[13]
  MIC: 16 µg/mL (≈ 39.2 µM)
[14]
  MIC: 8 µg/mL (≈ 19.6 µM)
[15]
  inhibition at 32 µg/mL: 70%
[16]
  IC50 at 24 h: > 100000 nM
[17]
  Activity: Non-toxic
[18]
  solubility at 2 h: 2600 µg/mL (≈ 6360 µM)
[19]
  MIC: 0.5 µg/mL (≈ 1.22 µM)
[20]
  Activity: Non-toxic
[21]
  MIC: 0.125 µg/mL (≈ 0.306 µM)
[22]
  Activity: Non-toxic
[23]
  Activity: Non-toxic
[24]
  ED50: 30.4 mg/kg
[25]
  Activity: Toxic
[26]
  MIC: 0.125 µg/mL (≈ 0.306 µM)
[27]
  inhibition at 4 µg/mL: 88%
[28]
  IC50: 10.6 nM
[29]
  Activity: Non-toxic
[30]
  MIC: 4 µg/mL (≈ 9.79 µM)
[31]
  MIC: 2 µg/mL (≈ 4.9 µM)
[32]
  MIC: 4 µg/mL (≈ 9.79 µM)
[33]
  IC50 at 24 h: > 100000 nM
[34]
  Activity: 7.1%
[35]
  MIC: 0.125 µg/mL (≈ 0.306 µM)
[36]
  MIC: 8 µg/mL (≈ 19.6 µM)
[37]
  MIC: 4 µg/mL (≈ 9.79 µM)
[38]
  inhibition at 0.031 µg/mL: 40%
[39]
  MIC: 4 µg/mL (≈ 9.79 µM)
[40]
  MIC: 16 µg/mL (≈ 39.2 µM)
[41]
  MIC: 4 µg/mL (≈ 9.79 µM)
